# Experimental data taken from US12213966B2, “Methods of reducing plasma level of macrophage migratory inhibitory factor in patients” (priority 2020, dated 2025).
# What was measured:
# [1] = test system: migration inhibitory factor (MIF); experiment: Randomized, double-blind, placebo-controlled study in COVID-19 subjects at risk for ARDS: plasma MIF level
# Experimental: The study consisted of a Screening Phase followed by a Treatment and Follow-up Phase. Following the Screening Phase, if the subject met eligibility criteria, subject was administered treatment with ibudilast or placebo. Subjects received ibudilast 100 mg/d (50 mg b.i.d) or placebo every day for 7 days. Upon completion of the 7-day Treatment Phase, subject was followed-up at Day 14 and at Day 28 post baseline.
# The following screening assessments were performed upon signing the ICF: inclusion/exclusion criteria review, physical examination, assess vital signs and O2 use, clinical status using the NIAID scale, ECG, draw blood for plasma cytokines that include: migration inhibitory factor (MIF), interleukin 1-beta (IL-1β), interleukin 6 (IL-6), tumor necrosis factor (TNF-α), and C-reactive protein (CRP). Pharmacokinetic (PK) samples, complete blood count (CBC), comprehensive metabolic panel (CMP), D-dimer, and coagulation tests were also be drawn.
# On Day 1 (Baseline) of the Treatment Phase, hospitalized subjects were treated with ibudilast (oral, 50 mg (5 capsules) b.i.d) or placebo for a 7-day period. Subjects underwent study-related procedures including physical examination, vital signs, clinical status assessment using the NIAID scale, O2 use, ECG, blood collection of biomarkers, PK, CBC, CMP, D-dimer and coagulation and information on adverse events and concomitant medications were recorded.
# The Follow-up Phase consisted of two visits, Day 14 (±3 d) and Day 28 (±3 d). • Day 14 (in-patient): On Day 14, conducted physical examination, clinical status, vital signs and O2 use, ECG, CBC, CMP, D-dimer, and coagulation tests, biomarkers, AE and conmed review, and recorded survival status. • Day 28 (telephone follow-up if patient was no longer hospitalized) On Day 28, clinical status and survival status were recorded.
# MIF = experiment: Open-label biomarker study in ALS subjects: serum MIF level before and after ibudilast; assay type: in vivo, human; conditions: 19 ALS subjects who completed the study
# Experimental: This was a multi-center, open-label study with a 6 weeks Screening Phase, 36 weeks Treatment Phase, and a Follow-up Phase 4 weeks after the last dose. Ibudilast was orally administered 50 mg b.i.d. for a total daily dose of 100 mg/day.
# The objectives of the Study were (i) to measure the impact of ibudilast on [11C]-PBR28 uptake in the motor cortices and brain stem measured by positron emission tomography (PET) imaging at 24 weeks; (ii) to measure the impact of ibudilast on several markers of neuro-inflammation measured by blood biomarkers; and (iii) to evaluate safety and tolerability.
# Out of the 46 patients screened, eleven (11) individuals were screen failures. Total of the 35 enrolled subjects were enrolled. Of the 35 enrolled subjects, 16 subjects (45.7%) terminated the study early, and 19 subjects completed the trial. Of these 16 early study withdrawals, 11 (68.8%) were attributed to AEs and 5 (31.2%) were attributed to consent withdrawn.
# Serum samples for the 19 subjects who completed the study were evaluated for MIF level before treatment and after treatment with ibudilast. • Mean (SD) pre-treatment serum MIF=422,989 (233,440) pg/ml • Mean (SD) post-treatment serum MIF=300,922 (113,843) pg/ml • Mean (SE) change/month=−19, 845 (8934) pg/ml (p=0.03)
# [2] = in vivo; cited from earlier work
# [3] = COVID-19 subject A, ibudilast oral 50 mg b.i.d. for 7 days
# [4] = COVID-19 subject B, ibudilast oral 50 mg b.i.d. for 7 days
# [5] = COVID-19 subject C, ibudilast oral 50 mg b.i.d. for 7 days
# [6] = COVID-19 subject D, ibudilast oral 50 mg b.i.d. for 7 days
# [7] = mean of 4 COVID-19 subjects, ibudilast oral 50 mg b.i.d. for 7 days
smiles,measurement,setting,value
"CC(C)C(=O)c1c(C(C)C)nn2ccccc12 [ibudilast, 2-methyl-1-(2-(1-methylethyl)pyrazolo(1,5-a)pyridin-3-yl)1-propanone]",Difference of mean change of MIF level between ibudilast-treated group and placebo group,"[1]; 4 ibudilast vs 4 placebo COVID-19 subjects, p value=0.00552",17277 pg/mL
same,"Plasma MIF level pre-treatment, Subject A","[1]; COVID-19 subject A, ibudilast-treated group, before treatment",25267 pg/mL
same,"Plasma MIF level difference (post minus pre), Subject A",[1]; [3],-11130 pg/mL
same,"Plasma MIF level post-treatment, Subject A",[1]; [3],14137 pg/mL
same,"Plasma MIF level pre-treatment, Subject B","[1]; COVID-19 subject B, ibudilast-treated group, before treatment",21130 pg/mL
same,"Plasma MIF level difference (post minus pre), Subject B",[1]; [4],-1497 pg/mL
same,"Plasma MIF level post-treatment, Subject B",[1]; [4],19633 pg/mL
same,"Plasma MIF level pre-treatment, Subject C","[1]; COVID-19 subject C, ibudilast-treated group, before treatment",17763 pg/mL
same,"Plasma MIF level difference (post minus pre), Subject C",[1]; [5],-12037 pg/mL
same,"Plasma MIF level post-treatment, Subject C",[1]; [5],5726 pg/mL
same,"Plasma MIF level pre-treatment, Subject D","[1]; COVID-19 subject D, ibudilast-treated group, before treatment",27005 pg/mL
same,"Plasma MIF level difference (post minus pre), Subject D",[1]; [6],-18433 pg/mL
same,"Plasma MIF level post-treatment, Subject D",[1]; [6],8572 pg/mL
same,Mean pre-treatment plasma MIF level,"[1]; mean of 4 COVID-19 subjects, ibudilast-treated group, before treatment",22791.3 pg/mL
same,Mean change MIF level,[1]; [7],-110774.3 pg/mL
same,Mean post-treatment plasma MIF level,[1]; [7],12017 pg/mL
same,Mean change MIF level,"[1]; mean of 4 COVID-19 subjects, ibudilast oral 50 mg b.i.d. for 7 days, listed as Ibudilast",-10774.3 pg/mL
same,Mean (SD) post-treatment serum MIF,"MIF; after ibudilast oral 50 mg b.i.d. (100 mg/day), 36 weeks Treatment Phase","300,922 (113,843) pg/ml"
same,Mean (SD) pre-treatment serum MIF,MIF; before treatment,"422,989 (233,440) pg/ml"
same,CNS penetration,[2],good CNS penetration
